Assay results published in US11731946B2, “Broad spectrum antivirulence, anti-persistence compounds” (priority 2017, dated 2023).

Columns and labels:
MvfR regulon [1] = test: Quantification of pyocyanin (OD520nm of chloroform-extracted cultures); format: cell-based, P. aeruginosa; conditions: for IC50 / activity at 1 µM / activity at 10 µM / activity at 50 µM: Pseudomonas aeruginosa; for IC50: read-out: IC50 pyocyanin (μM); for activity at 1 µM: read-out: pyocyanin @1 uM (%), compound at 1 uM; for activity at 10 µM: read-out: pyocyanin @10 uM (%), compound at 10 uM; for activity at 50 µM: read-out: pyocyanin @50 uM (%), compound at 50 uM
MvfR regulon [2] = test: pqsA gene expression (pqsA-GFP reporter); format: cell-based, P. aeruginosa; conditions: for activity at 10 µM / activity at 50 µM: Pseudomonas aeruginosa; for activity at 10 µM: read-out: pqsA @10 uM (%), compound at 10 uM; for activity at 50 µM: read-out: pqsA @50 uM (%), compound at 50 uM
Protocol: Experiments were performed to identify compounds that inhibit the MvfR regulon without altering growth, ultimately attenuating P. aeruginosa infection. MvfR is a LysR-type transcriptional regulator that directs HAQs synthesis, including that of its ligands, 4-hydroxy-2-heptylquinoline (HHQ) and 3,4-dihydroxy-2-heptylquinoline (PQS).
MvfR promotes the production of HAQs by binding to and activating the pqs operon, which encodes enzymes for HAQ synthesis. Anthranilic acid (AA), derived from the phnAB, kynABU, and trpEG pathways, is the precursor for HAQs. pqsA encodes an anthranilate-coenzyme A ligase, which activates anthranilic acid and catalyzes the first committed step to HAQ production. The exact roles of PqsB and PqsC are unknown, though both show homology to acyl-carrier-proteins and both are required for HHQ and PQS production. […] The final gene of the operon, pqsE encodes for a putative hydrolase, and while the protein is not required for the synthesis of HAQs, it is necessary for pyocyanin production.
Nanomolar levels of most of these MvfR antagonists impeded the activity of MvfR and in consequence the MvfR virulence regulated ACRP functions, including: (1) the production of the important pro-acute P. aeruginosa virulence factor pyocyanin (see e.g., FIG. 9A) the efficacy of two of these potent inhibitors, D57 and D88, was also confirmed by testing many different MDR P. aeruginosa clinical isolates (see e.g., FIG. 11A-11B), providing further confidence of their inhibitory potency; (2) the expression of the genes that encode the enzymes catalyzing the synthesis of both pro-acute and pro-persistence MvfR-regulated virulence molecules, 4-hydroxyl-2-alkyl-quinolines (HAQs) and 2-aminoacetophenon (2-AA), as assessed by pqsAGFP reporter gene expression (see e.g., FIG. 9B) and HAQ production showing the levels of MvfR inducers/ligands HHQ and PQS as well as of the molecules critical for biofilm and Antibiotic tolerant/persiters cells formation HQNO and 2-AA (see e.g., FIG. 9C); (3) AT/P cell formation (see e.g., FIGS. 11A, 12A); (4) biofilm formation (see e.g., FIG. 12B); and (5) biofilm dispersal of preformed biofilm by potentiating antibiotic action (see e.g., FIG. 11B).

[3] = compound at 50 uM, listed as D92

Structure (SMILES)	IC50 (MvfR regulon [1]) [µM]	activity at 1 µM (MvfR regulon [1]) [%]	activity at 10 µM (MvfR regulon [1]) [%]	activity at 50 µM (MvfR regulon [1]) [%]	activity at 10 µM (MvfR regulon [2]) [%]	activity at 50 µM (MvfR regulon [2]) [%]	pyocyanin @50 uM (%) (MvfR regulon [1]; [3])	pqsA @50 uM (%) (MvfR regulon [2]; [3])
N#Cc1ccc(NC(=O)CC(=O)Nc2ccc(C#N)nc2)cc1 [Compound 92]	1.61	64.5	13.9	6.8	25.4	–	–	–
N#Cc1ccc(NC(=O)CC(=O)Nc2ccc(C#N)cn2)cc1 [Compound 93]	–	79.6	53.5	14.3	61.3	–	–	–
N#Cc1ccc(NC(=O)C2CCN(c3ccc(F)cc3)C2=O)cc1 (stereo not shown) [Compound 94]	–	94.6	94	95.2	109	–	–	–
CC(C(=O)Nc1ccc(C#N)cc1)C(=O)Nc1ccc(C#N)cc1 [Compound 95]	1.35	93.5	23.9	7	45.7	–	–	–
N#Cc1ccc(NC(=O)CS(=O)(=O)Nc2ccc(C#N)cc2)cc1 [Compound 96]	–	97.3	109	111	118	–	–	–
N#Cc1ccc(NC(=O)CC(=O)N2CCc3cc(C#N)ccc32)cc1 [Compound 97]	–	99.9	74.5	82.3	99.7	–	–	–
N#Cc1ccc(/C=C/C(=O)Nc2ccc(C#N)cc2)cc1 [Compound 98]	–	94.5	108	114	114	–	–	–
N#Cc1ccc(NC(=O)CC(=O)Cc2ccc(F)cc2)cc1 [Compound 99]	–	92	115	102	96.3	–	–	–
N#Cc1ccc(NC(=O)CC(=O)Nc2ccncc2)cc1 [Compound 100]	–	66.3	101	81.9	88.9	–	–	–
N#Cc1ccc(NC(=O)/C=C/C(=O)Nc2ccc(F)cc2)cc1 [Compound 101]	–	–	–	87.8	96.3	–	–	–
N#Cc1ccc(NC(=O)C2(C(=O)Nc3ccc(C#N)cc3)CC2)cc1 [Compound 102]	–	–	–	96.8	93.4	–	–	–
N#Cc1ccc(NC(=O)CC(O)Cc2ccc(F)cc2)cc1 (stereo not shown) [Compound 104]	–	–	–	95.3	97.3	–	–	–
N#Cc1ccc2c(c1)OCCN2C(=O)CC(=O)Nc1ccc(Oc2ccccc2)cc1 [Compound 105]	2.78	68	32	11.4	47.3	–	–	–
N#Cc1ccc(NC(=O)CC(=O)Nc2ccc(C#N)nc2)cn1 [Compound 106]	–	90	75.6	43.1	80	38.9	–	–
N#Cc1ccc(NC(=O)CC(=O)Nc2ccc(Oc3ccccc3)cc2)c(N)c1 [Compound 107]	–	75	12.1	–	2.1	–	3.51	1.40
CC(F)(C(=O)Nc1ccc(C#N)cc1)C(=O)Nc1ccc(C#N)cc1 [Compound 109]	–	98.6	78.2	51.5	87	84.9	–	–
N#Cc1ccc(NC(=O)C(F)C(=O)Nc2ccc(C#N)cc2)cc1 [Compound 111]	–	91.7	50.8	34	62.8	41.8	–	–
N#Cc1ccc(NC(=O)C(F)(F)C(=O)Nc2ccc(C#N)cc2)cc1 [Compound 112]	–	101	87.1	93.6	95.4	95.1	–	–
O=C(CC(=O)Nc1ccc(C(F)(F)F)cc1)Nc1ccc(Oc2ccccc2)cc1 [Compound 113]	–	68	60.9	42.1	37.2	28.8	–	–
